What all share (assay): DTP human tumour cell line panel, 48 h
For assay [1], the system named is A498 renal.
Assay [2] has as its system UACC-62 melanoma.
Assay [3] deals with MOLT-4 leukemia.
The subject of assay [4] is HOP-62 NSCLC.
In assay [5] the test system is PC-3 prostate.
Assay [6] relates to HCT-116 colon.
In assay [7] the test system is ACHN renal.
For assay [8], the system named is HCT-15 colon.
The subject of assay [9] is MDA-N.
Assay [10] relates to HCC-2998 colon.

SMILES strings stand for the structures.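 Cultured in 96-well plates, cells were exposed to test compound for 48 hours across five concentrations. GI50 = concentration required for 50% inhibition of growth. Definition used: TGI = concentration required for complete inhibition of growth.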

For `Cc1ccc(-[n+]2cc([O-])on2)cc1`, the TGI in assay [1], in assay [2], in [3], in assay [4], in assay [5] and in assay [6] was more than 100 µM each time. For the same compound, the TGI in [7], in assay [8] and in assay [9] was more than 100 µM in each case.

On to `C(=C/CCCN1O[C@@H](CCCCCCCCc2cccnc2)[C@H]2CCC[C@H]21)/CCCCCCCCCc1cccnc1`, for which the TGI was 45.5 µM in [1]; 51 µM in [2]; 55.1 µM in assay [3]; 49.3 µM in [4]; 46.1 µM in [5]; 40.4 µM in [6]. The results for the TGI in [8] and in assay [9] were 58.9 µM and 71.9 µM, respectively.

Consider `N#Cc1cccc(-n2[nH]c(=O)ccc2=O)c1`, for which the TGI in [10], in assay [2], in assay [3], in [4], in assay [6] and in assay [7] was more than 100 µM throughout. In assay [8], this compound yielded a TGI of more than 100 µM.

With `O=C1/C(=C\c2ccc(Cl)cc2Cl)Sc2scc(-c3ccc(O)c(O)c3)[n+]21`, the TGI is 40.9 µM in [10]; 22.4 µM in assay [2]; 29.6 µM in [3]; 30.1 µM in assay [4]; 36.4 µM in assay [5]; 29.8 µM in [6]. The TGI came to 46.3 µM in assay [7], 30.1 µM in assay [8] and 60.1 µM in [9].

As to `CCOC(=O)c1ccc(-c2cc(C)no2)[nH]1`, the concentration for total growth inhibition (TGI) in assay [1], in assay [2], in [3], in assay [5], in assay [6] and in assay [7] was more than 100 µM throughout. Moreover, the total growth inhibition concentration (TGI) in assay [8] and in assay [9] was more than 100 µM each time.

Take `C[C@]12c3c4cc(NC(=O)C(=O)NCc5ccc(-c6ccccn6)nc5)cc3Oc3cc(NC(=O)C(=O)NCc5ccc(-c6ccccn6)nc5)cc(c31)OC1C=C(NC(=O)C(=O)NCc3ccc(-c5ccccn5)nc3)C=C(O4)C12` (stereo partly drawn): the TGI in [2] was 79.1 µM; in assay [3] it was more than 100 µM; in [4] it was more than 100 µM; in [5] it was more than 100 µM; in assay [6] it was more than 100 µM; in assay [7] it was 59.2 µM. Besides, the TGI in [8] and in assay [9] was more than 100 µM each time.

Turning to `CCNC(=O)c1ccc(C)c(N=NN(C)C)c1`, the TGI in assay [10], in [2], in [4], in assay [6], in [7] and in assay [8] was more than 100 µM each time.

As for `O=c1[nH]c2cc(Cl)ccc2nc1/C(=N\Nc1ccccc1)C(O)c1ccc(Cl)c(Cl)c1` (stereo not drawn), the TGI in [10], in [2], in assay [3], in [4], in assay [6] and in assay [7] was more than 100 µM each time. The TGI in [8] was more than 100 µM.

Regarding `CON(C)C(=O)C(Cc1ccccc1)NC(=O)OCc1ccccc1` (stereo not drawn), the TGI in assay [10], in assay [1], in [2], in assay [3], in assay [4] and in [6] was more than 100 µM throughout. For the same compound, the TGI in [7] and in assay [8] was more than 100 µM each time.

As for `CCCCCCOc1ccc(/C=N/Nc2cc(C)nc3ccc(Cl)cc23)cc1`, the GI50 in assay [10] was 1.93 µM; in [1], 1.77 µM; in assay [2], 1.78 µM; in [3], 1.85 µM; in assay [4], 1.55 µM; in assay [5] it was 1.57 µM. Also, the GI50 in assay [7] is 1.71 µM; in [8] it was 1.27 µM. In addition, the TGI in assay [10] stood at 3.45 µM; in assay [1] it was 3.4 µM; in assay [2], 3.27 µM; in assay [3] it was 4.05 µM; in assay [4], 3.08 µM; in assay [5], 3.21 µM. The TGI in assay [7] was found to be 3.08 µM; in assay [8] it was 2.55 µM.

Turning to `CCOC(=O)c1cc(-c2ccc(OC)cc2)c([N+](=O)[O-])n1C`, the TGI in [10], in assay [2], in assay [3], in assay [6], in [7] and in assay [8] was more than 10 µM throughout. Moreover, in assay [9], the TGI was more than 10 µM.

Turning to `COc1cc2c(cc1O)[C@H](C)C(c1ccc(OC)c(OC)c1)O2` (stereo partly drawn), the TGI in assay [10] is more than 100 µM; in assay [1] it was more than 100 µM; in assay [2], 10.1 µM; in assay [3], 23.9 µM; in [4], more than 100 µM; in assay [6], 15.1 µM. Besides, the values for the TGI in assay [7] and in assay [8] were 22.4 µM and 13.3 µM, respectively.

As to `COc1cc(S(=O)(=O)Nc2ccc(-c3csc(N4C(=O)CSC4c4cccc(Oc5ccccc5)c4)n3)cc2)ccc1Cl` (stereo not drawn), the TGI in [1], in assay [2], in assay [3], in assay [4], in assay [5] and in assay [6] was more than 100 µM throughout. The TGI in assay [7] is more than 100 µM; in [8] it was more than 100 µM; in assay [9], 75.8 µM.

With `Cc1ccc(Nc2nc(NNC(=O)Cc3ccccc3)nc(NNC(=O)c3ccncc3)n2)cc1`, the TGI in [10], in [1], in [2], in assay [3], in assay [4] and in [8] was more than 10 µM throughout. The same compound gave a TGI in assay [9] of more than 10 µM.

With `COc1ccc(C2Oc3cc(OC)c(OC)cc3C2CCl)cc1OC` (stereo not drawn), the TGI was more than 100 µM in assay [10]; more than 100 µM in assay [1]; 79.5 µM in [2]; more than 100 µM in assay [3]; more than 100 µM in [4]; more than 100 µM in [6]. Besides, the TGI in assay [7] and in assay [8] was more than 100 µM throughout.

Consider `Oc1ccc(NCn2c(=S)sc3ccccc32)cc1`, for which the TGI in [10], in assay [1], in [2], in assay [3], in [4] and in [5] was more than 100 µM throughout. Besides, the TGI in [6], in [7] and in [8] was more than 100 µM throughout.

For the compound `COc1cc(-c2cccs2)sc1-c1cccs1`, the TGI in assay [10], in assay [2], in assay [3], in assay [6], in assay [7] and in assay [8] was more than 100 µM each time.

Take `O=C(CC1Sc2ccccc2NC1=O)Nc1ccccc1[N+](=O)[O-]` (stereo not drawn): the TGI in assay [10], in assay [1], in [2], in assay [3], in assay [4] and in assay [6] was more than 100 µM throughout. Moreover, the TGI in assay [7] and in assay [8] was more than 100 µM throughout.

In the case of `CCOC(=O)c1nnn(CCCCO)c1C(=O)OCC`, the TGI in assay [10], in [2], in [3], in assay [4], in assay [5] and in assay [6] was more than 100 µM each time. Moreover, the concentration for total growth inhibition (TGI) in [8] and in assay [9] was more than 100 µM each time.

For `Cc1ccc(S(=O)(=O)N2CC2CCCCC=O)cc1` (stereo not drawn), the TGI in assay [1], in assay [2], in [3], in assay [4], in assay [5] and in assay [6] was more than 100 µM each time. Further, the total growth inhibition concentration (TGI) in [7], in [8] and in [9] was more than 100 µM throughout.

Consider `COc1cc(OCCN(C)C)c2[nH]c(C(=O)N3CC(CCl)c4ccc(N)cc43)cc2c1` (stereo not drawn), for which the TGI in assay [10] was 0.297 µM; in assay [1], 0.508 µM; in [2], 0.567 µM; in [3], 0.0522 µM; in assay [4], 0.0507 µM; in assay [5], 1.34 µM. Further, the TGI in [6] is 1.64 µM; in assay [8] it was 1.58 µM.

In the case of `CC1=NN(c2nc(N)nc(COc3ccc(N)cc3)n2)C(C)(C)C1`, the TGI in assay [10], in assay [1], in [2], in assay [3], in [4] and in [5] was more than 100 µM in each case. Also, the TGI in [6], in [7] and in assay [8] was more than 100 µM each time.

For `O=c1cc(-c2ccc3c(c2)OCO3)[nH]c2cc3c(cc12)OCO3`, the TGI in assay [10] was more than 100 µM; in assay [2], more than 100 µM; in [3] it was more than 100 µM; in assay [4], 63 µM; in assay [6], more than 100 µM; in assay [7], more than 100 µM. The compound further returned a TGI in assay [8] of more than 100 µM. The GI50 in assay [6] was 38 µM.

In the case of `O=C(Nc1c(O)[nH]c(=S)[nH]c1=O)c1ccccc1`, the TGI in [1], in assay [2], in assay [3], in [4], in [6] and in [7] was more than 100 µM throughout. Also, the TGI in [8] is more than 100 µM.

Turning to `Nc1ncc2c(n1)-c1ccccc1OC2N1CCCCC1` (stereo not drawn), the TGI in [1], in assay [2], in assay [3], in assay [5], in assay [6] and in assay [7] was more than 100 µM throughout. Also, the concentration for total growth inhibition (TGI) in assay [8] and in assay [9] was more than 100 µM each time.

For the compound `O=C1c2cccc3cc([N+](=O)[O-])cc(c23)C(=O)N1Nc1ccc([N+](=O)[O-])cc1[N+](=O)[O-]`, the TGI in assay [10] was found to be 29.2 µM; in [1] it was 41.1 µM; in assay [2], 24.5 µM; in [3], 11.8 µM; in assay [4], 50.5 µM; in [5], 72.7 µM. Besides, the TGI was 34.3 µM in assay [6], 7.06 µM in [7] and 27.4 µM in assay [8].

Regarding `O=S(=O)(O)c1cc(N=Nc2c(O)ccc3ccccc23)cc2c(S(=O)(=O)O)cccc12`, the TGI in assay [10], in assay [1], in assay [2], in assay [3], in [4] and in [5] was more than 100 µM in each case. The TGI in assay [6], in assay [7] and in [8] was more than 100 µM each time.

As to `COC(=O)c1cccc(C)c1C1CN=NC12Cc1cc(C)cc(C)c1C2=O` (stereo not drawn), the TGI was 76.7 µM in assay [10]; more than 100 µM in [1]; 74.9 µM in [3]; more than 100 µM in assay [4]; 66.5 µM in assay [6]; more than 100 µM in assay [7]. Besides, the TGI in [8] and in assay [9] was more than 100 µM each time.

For the compound `COc1cc2c(/C=C3/C(=O)Nc4cccc(Cl)c43)c(Cl)[nH]c2cc1C`, the TGI in assay [1] came out at 20.7 µM; in assay [2], 4.21 µM; in [3], 1.26 µM; in assay [4] it was 10.2 µM; in assay [5] it was 11.8 µM; in assay [6] it was 3.19 µM. For the same compound, the results for the TGI in assay [7] and in [8] were 12.2 µM and 4.29 µM, respectively.

`COc1cc(C2C(Cl)C(=O)N2n2cnc3ccccc3c2=O)ccc1O` (stereo not drawn): the TGI in assay [10], in assay [2], in assay [3], in assay [4], in assay [6] and in assay [7] was more than 100 µM throughout. The TGI in assay [8] was more than 100 µM.

Regarding `COc1cc(/C=C2\CN(S(=O)(=O)c3ccc(C)cc3)C/C(=C\c3cc(CN4CCCC4)c(O)c(OC)c3)C2=O)cc(CN2CCCC2)c1O`, the GI50 in assay [10] is 1.64 µM; in assay [3], 0.379 µM; in [5], 1.56 µM; in assay [6] it was 0.848 µM; in [7], 1.38 µM; in [8] it was 1.94 µM. Further, the TGI turned out to be 3.08 µM in [10]; 2.92 µM in [3]; 3.67 µM in [5]; 2.21 µM in [6]; 2.71 µM in assay [7]; 5.83 µM in [8].
